Test results as given in PubChem BioAssay AID248 (DTP/NCI, 2004).
Values joined by “and” are separate entries in the source; they are usually repeats but may differ in a detail not shown here. Identical values can stand only once. Toxic doses and inconclusive results are not listed. Cut-off read from the data, not from the text of the source: active = T/C of 150% or more; inactive = T/C below 125%.

Tested on: L1210 leukemia ip in BDF1 mice, survival T/C
Assay: NCI In Vivo Anticancer Drug Screen. Data for tumor model L1210 Leukemia (intraperitoneal) in B6D2F1 (BDF1) mice
Settings: higher = longer survival
Method in brief: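 Mice bearing the transplanted tumor received compound or vehicle. Survival of the treated group was divided by that of the vehicle-treated control group to give the ratio.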

[1] = endpoint: mean survival time, dose: 100.0 mg/kg/injection, schedule: Q01DX001 (ip), vehicle: saline
[2] = endpoint: mean survival time, dose: 200.0 mg/kg/injection, schedule: Q01DX001 (ip), vehicle: saline
[3] = endpoint: mean survival time, dose: 400.0 mg/kg/injection, schedule: Q01DX001 (ip), vehicle: saline

Measured: T/C

CSc1ncnc2nc[nH]c12
inactive: endpoint: mean survival time, dose: 1.5 mg/kg/injection, schedule: Q01DX Z (ip), vehicle: saline 95 % of control | endpoint: mean survival time, dose: 3.0 mg/kg/injection, schedule: Q01DX Z (ip), vehicle: saline 95 % of control | endpoint: mean survival time, dose: 6.0 mg/kg/injection, schedule: Q01DX Z (ip), vehicle: saline 103 % of control | endpoint: mean survival time, dose: 12.0 mg/kg/injection, schedule: Q01DX Z (ip), vehicle: saline 95 % of control | endpoint: mean survival time, dose: 12.5 mg/kg/injection, schedule: Q#A X Z (ip), vehicle: saline 108 % of control | endpoint: mean survival time, dose: 25.0 mg/kg/injection, schedule: Q01DX006 (iv), vehicle: saline 103 % of control | endpoint: mean survival time, dose: 25.0 mg/kg/injection, schedule: Q01DX009 (ip), vehicle: saline 97 % of control | endpoint: mean survival time, dose: 25.0 mg/kg/injection, schedule: Q01DX010 (ip), vehicle: saline 92 % of control | endpoint: mean survival time, dose: 25.0 mg/kg/injection, schedule: Q01DX Z (im), vehicle: methylcellulose (MC) 94 % of control | endpoint: mean survival time, dose: 25.0 mg/kg/injection, schedule: Q01DX Z (ip), vehicle: saline 101 % of control | endpoint: mean survival time, dose: 25.0 mg/kg/injection, schedule: Q01DX Z (sc), vehicle: methylcellulose (MC) 117 % of control | endpoint: mean survival time, dose: 25.0 mg/kg/injection, schedule: Q#A X Z (ip), vehicle: saline 103 % of control | endpoint: mean survival time, dose: 30.0 mg/kg/injection, schedule: Q01DX015 (ip), vehicle: carboxymethylcellulose (CMC) 114 % of control | endpoint: mean survival time, dose: 45.0 mg/kg/injection, schedule: Q01DX015 (ip), vehicle: carboxymethylcellulose (CMC) 104 % of control | endpoint: mean survival time, dose: 50.0 mg/kg/injection, schedule: Q01DX006 (iv), vehicle: saline 100 % of control | endpoint: mean survival time, dose: 50.0 mg/kg/injection, schedule: Q01DX009 (ip), vehicle: saline 102 % of control and 104 % of control | endpoint: mean survival time, dose: 50.0 mg/kg/injection, schedule: Q01DX010 (ip), vehicle: saline 89 % of control | endpoint: mean survival time, dose: 50.0 mg/kg/injection, schedule: Q01DX Z (im), vehicle: methylcellulose (MC) 107 % of control | endpoint: mean survival time, dose: 50.0 mg/kg/injection, schedule: Q01DX Z (ip), vehicle: saline 105 % of control | endpoint: mean survival time, dose: 50.0 mg/kg/injection, schedule: Q01DX Z (sc), vehicle: methylcellulose (MC) 96 % of control | endpoint: mean survival time, dose: 50.0 mg/kg/injection, schedule: Q#A X Z (ip), vehicle: saline 112 % of control | endpoint: mean survival time, dose: 60.0 mg/kg/injection, schedule: Q01DX015 (ip), vehicle: carboxymethylcellulose (CMC) 114 % of control | endpoint: mean survival time, dose: 75.0 mg/kg/injection, schedule: Q01DX015 (ip), vehicle: carboxymethylcellulose (CMC) 108 % of control | endpoint: mean survival time, dose: 75.0 mg/kg/injection, schedule: Q03DX Z (ip), vehicle: saline 100 % of control | endpoint: mean survival time, dose: 90.0 mg/kg/injection, schedule: Q01DX015 (ip), vehicle: carboxymethylcellulose (CMC) 109 % of control | endpoint: mean survival time, dose: 100.0 mg/kg/injection, schedule: Q01DX006 (iv), vehicle: saline 108 % of control | endpoint: mean survival time, dose: 100.0 mg/kg/injection, schedule: Q01DX009 (ip), vehicle: saline 102 % of control and 103 % of control | endpoint: mean survival time, dose: 100.0 mg/kg/injection, schedule: Q01DX010 (ip), vehicle: saline 95 % of control and 87 % of control | endpoint: mean survival time, dose: 100.0 mg/kg/injection, schedule: Q01DX Z (im), vehicle: methylcellulose (MC) 89 % of control | endpoint: mean survival time, dose: 100.0 mg/kg/injection, schedule: Q01DX Z (ip), vehicle: saline 111 % of control | endpoint: mean survival time, dose: 100.0 mg/kg/injection, schedule: Q01DX Z (sc), vehicle: methylcellulose (MC) 113 % of control | endpoint: mean survival time, dose: 120.0 mg/kg/injection, schedule: Q01DX001 (ip), vehicle: carboxymethylcellulose (CMC) 95 % of control and 100 % of control | endpoint: mean survival time, dose: 125.0 mg/kg/injection, schedule: Q01DX001 (ip), vehicle: methylcellulose (MC) 105 % of control and 108 % of control | endpoint: mean survival time, dose: 150.0 mg/kg/injection, schedule: Q03DX Z (ip), vehicle: saline 101 % of control | endpoint: mean survival time, dose: 180.0 mg/kg/injection, schedule: Q01DX001 (ip), vehicle: carboxymethylcellulose (CMC) 102 % of control and 106 % of control | endpoint: mean survival time, dose: 200.0 mg/kg/injection, schedule: Q01DX006 (iv), vehicle: saline 97 % of control | endpoint: mean survival time, dose: 200.0 mg/kg/injection, schedule: Q01DX009 (ip), vehicle: saline 97 % of control and 100 % of control | endpoint: mean survival time, dose: 200.0 mg/kg/injection, schedule: Q01DX010 (ip), vehicle: saline 105 % of control | endpoint: mean survival time, dose: 200.0 mg/kg/injection, schedule: Q01DX Z (im), vehicle: methylcellulose (MC) 102 % of control | endpoint: mean survival time, dose: 200.0 mg/kg/injection, schedule: Q01DX Z (ip), vehicle: saline 105 % of control | endpoint: mean survival time, dose: 200.0 mg/kg/injection, schedule: Q01DX Z (sc), vehicle: methylcellulose (MC) 112 % of control | endpoint: mean survival time, dose: 250.0 mg/kg/injection, schedule: Q01DX001 (ip), vehicle: methylcellulose (MC) 106 % of control and 108 % of control | endpoint: mean survival time, dose: 270.0 mg/kg/injection, schedule: Q01DX001 (ip), vehicle: carboxymethylcellulose (CMC) 103 % of control and 117 % of control | endpoint: mean survival time, dose: 300.0 mg/kg/injection, schedule: Q03DX Z (ip), vehicle: saline 100 % of control | endpoint: mean survival time, dose: 500.0 mg/kg/injection, schedule: Q01DX001 (ip), vehicle: methylcellulose (MC) 116 % of control | endpoint: mean survival time, dose: 1000.0 mg/kg/injection, schedule: Q01DX001 (ip), vehicle: methylcellulose (MC) 112 % of control | endpoint: median survival time, dose: 25.0 mg/kg/injection, schedule: Q01DX009 (ip), vehicle: saline 100 % of control | endpoint: median survival time, dose: 50.0 mg/kg/injection, schedule: Q01DX009 (ip), vehicle: saline 95 % of control and 106 % of control | endpoint: median survival time, dose: 100.0 mg/kg/injection, schedule: Q01DX009 (ip), vehicle: saline 100 % of control and 106 % of control | endpoint: median survival time, dose: 200.0 mg/kg/injection, schedule: Q01DX009 (ip), vehicle: saline 100 % of control and 115 % of control

CC(=O)CC(C)(C)C
inactive: [1] 102 % of control | [2] 98 % of control | [3] 91 % of control

O=C(Nc1ccc(C(=O)Nc2nccs2)cc1)c1ccc(C(=O)Nc2ccc(C(=O)Nc3nccs3)cc2)c(Cl)c1
inactive: endpoint: mean survival time, dose: 4.4 mg/kg/injection, schedule: Q01DX Z (ip), vehicle: saline 106 % of control | endpoint: mean survival time, dose: 6.6 mg/kg/injection, schedule: Q01DX Z (ip), vehicle: saline 97 % of control | endpoint: mean survival time, dose: 10.0 mg/kg/injection, schedule: Q01DX Z (ip), vehicle: saline 97 % of control | endpoint: mean survival time, dose: 15.0 mg/kg/injection, schedule: Q01DX Z (ip), vehicle: saline 93 % of control and 97 % of control and 106 % of control | endpoint: mean survival time, dose: 22.5 mg/kg/injection, schedule: Q01DX Z (ip), vehicle: saline 104 % of control | endpoint: mean survival time, dose: 30.0 mg/kg/injection, schedule: Q01DX Z (ip), vehicle: saline 100 % of control | endpoint: mean survival time, dose: 33.75 mg/kg/injection, schedule: Q01DX Z (ip), vehicle: saline 111 % of control | endpoint: mean survival time, dose: 50.6 mg/kg/injection, schedule: Q01DX Z (ip), vehicle: saline 93 % of control | endpoint: mean survival time, dose: 60.0 mg/kg/injection, schedule: Q01DX Z (ip), vehicle: saline 97 % of control | endpoint: mean survival time, dose: 120.0 mg/kg/injection, schedule: Q01DX Z (ip), vehicle: saline 98 % of control and 100 % of control | endpoint: mean survival time, dose: 180.0 mg/kg/injection, schedule: Q01DX Z (ip), vehicle: saline 93 % of control | endpoint: mean survival time, dose: 270.0 mg/kg/injection, schedule: Q01DX Z (ip), vehicle: saline 92 % of control | endpoint: mean survival time, dose: 400.0 mg/kg/injection, schedule: Q01DX Z (ip), vehicle: saline 93 % of control

CC[N+](CC)(CC)CCCC[N+](CC)(CC)CC
inactive: endpoint: mean survival time, dose: 12.5 mg/kg/injection, schedule: Q01DX009 (ip), vehicle: water 100 % of control | endpoint: mean survival time, dose: 25.0 mg/kg/injection, schedule: Q01DX009 (ip), vehicle: water 96 % of control | endpoint: mean survival time, dose: 50.0 mg/kg/injection, schedule: Q01DX009 (ip), vehicle: water 90 % of control

O=[N+]([O-])c1ccc(O)c(/C=N/Nc2c3ccccc3nc3ccccc23)c1
inactive: [1] 103 % of control | [2] 95 % of control | [3] 92 % of control

O=c1[nH]c(=O)n(C2OC(CO)C(O)C2O)cc1CCC(F)F (configuration not stated)
inactive: endpoint: mean survival time, dose: 100.0 mg/kg/injection, schedule: Q04DX002 (ip), vehicle: other 105 % of control | endpoint: mean survival time, dose: 200.0 mg/kg/injection, schedule: Q04DX002 (ip), vehicle: other 102 % of control

CCOC(CN=CN(C)C)OCC
inactive: endpoint: mean survival time, dose: 100.0 mg/kg/injection, schedule: Q04DX003 (ip), vehicle: saline 94 % of control | endpoint: mean survival time, dose: 200.0 mg/kg/injection, schedule: Q04DX003 (ip), vehicle: saline 105 % of control | endpoint: mean survival time, dose: 400.0 mg/kg/injection, schedule: Q04DX003 (ip), vehicle: saline 97 % of control

CC12CCCCC1CC(=O)/C(=C\O)C2 (configuration not stated)
inactive: endpoint: mean survival time, dose: 25.0 mg/kg/injection, schedule: Q04DX002 (ip), vehicle: DMSO 94 % of control | endpoint: mean survival time, dose: 50.0 mg/kg/injection, schedule: Q04DX002 (ip), vehicle: DMSO 90 % of control

Cc1ccc2[nH]c3ccccc3c(=O)c2c1
inactive: endpoint: mean survival time, dose: 75.0 mg/kg/injection, schedule: Q01DX001 (ip), vehicle: saline 93 % of control | endpoint: mean survival time, dose: 150.0 mg/kg/injection, schedule: Q01DX001 (ip), vehicle: saline 91 % of control | endpoint: mean survival time, dose: 300.0 mg/kg/injection, schedule: Q01DX001 (ip), vehicle: saline 90 % of control
